Source: patent US8933114B2, “Polymorphic forms of asenapine maleate and processes for their preparation” (Chemo Iberica, S.A., priority 2010, dated 2015)
Structures can show the parent of a compound that is named as a salt.

What was measured:
[1] = stability of the polymorphic forms at room temperature; type: physicochemical; conditions: solid form
[2] = micronization step starting from the monoclinic form; cited from earlier work
[3] = solid-state stability of the freeze-dried amorphous form upon standing; type: physicochemical; conditions: amorphous form prepared by freeze-drying
Source text: WO 2008/040816 discloses an amorphous form of asenapine maleate, prepared via spray-drying or freeze-drying processes.

## CN1C[C@H]2c3ccccc3Oc3ccc(Cl)cc3[C@@H]2C1 [Form G, asenapine maleate]
[1]
  stability at room temperature: stable at room temperature

## CN1C[C@H]2c3ccccc3Oc3ccc(Cl)cc3[C@@H]2C1 [Form H, asenapine maleate]
[2]
  polymorphic form obtained after micronization: an unpredictable mixture of Form H and Form L is obtained

## CN1C[C@H]2c3ccccc3Oc3ccc(Cl)cc3[C@@H]2C1 [amorphous form, asenapine maleate]
[3]
  stability of solid form upon standing: not stable, and spontaneously converts into Form H upon standing
